The text below walks through data of patent publication US20030203969A1, “Pharmaceutically active aromatic guanylhydrazones” (priority 2000, published 2003).

Like-named read-outs stand apart in the source and are kept apart here.

The term IC50 denotes the concentration needed to halve the response being measured.

Series [1] concerns NRTI + PI-resistant HIV-1. Kind of series: Inhibition of multiple anti-retroviral drug resistant HIV-1 strains: NRTI + PI-resistant. The series is classed as cell-based. As to the method:
(§1) In addition, various different “types” of multiple anti-retroviral drug resistant HIV-1 strains were also tested: […]

A further series concerns Vero cells. Kind of series: Cytotoxicity in uninfected Vero cells (HSV-1 experiments, MTS). The following applies: inhibits cell growth by 50%, read-out: TC50 (the source's name). The series is classed as cell-based, African green monkey. An excerpt: A virus-induced cytopathic effects (CPE)-inhibition assay procedure using Promega's Cell Titer Aqueous One Solution (MTS, metabolic dye) is employed to evaluate compounds for antiviral activity against herpes simplex virus type 1 (strain HF) in Vero cells (African green monkey cells, ATCC Cat. No. CCL-81). Vero cells are pregrown in 96-well tissue culture plates using Dulbecco's Modified Eagle's Medium (DMEM) supplemented with 10% heat-inactivated fetal bovine serum (FBS), L-glutamine, penicillin, and streptomycin. To each of the replicate cell cultures is added 50 μl of the test drug solution and 50 μl of virus suspension. Cell controls containing medium alone, virus-infected controls containing medium and virus, drug cytotoxicity controls containing medium and each drug concentration, reagent controls containing culture medium only (no cells), and drug calorimetric controls containing drug and medium (no cells) are run simultaneously with the test samples. The plates are incubated at 37° C. in a humidified atmosphere containing 5% CO2 until maximum CPE is observed in the untreated virus control cultures (Day 5). CPE inhibition is determined by a dye (MTS) uptake procedure. […] The purple color of the MTS formazan is then measured spectrophotometrically at 490/650 nm. […]

The next series concerns HBV. Kind of series: HBV replication in chronically infected HepG2 2.2.15 cells (TaqMan PCR of HBV DNA). The series is classed as cell-based, Hepatitis B virus. Particulars: for IC50: chronically HBV-infected HepG2 2.2.15 cells. As to the method: (§2) Human HepG2-2.2.15 cells (ATCC Cat. No. CRL-11997), chronically infected with HBV, are plated in 96-well microtiter plates in DMEM medium supplemented with fetal bovine serum. After incubation at 37° C. in a humidified, 5% CO2 environment for 16-24 hours, the monolayer of HepG2-2.2.15 cells is washed and the medium is replaced with complete medium containing various concentrations of test compound. Every three days during the experiments, the culture medium is replaced with fresh medium containing the appropriately diluted test compound. Six days following the initial administration of the test compound, the cell culture supernatant is collected and clarified by centrifugation. The cell viability is evaluated by a dye uptake procedure (Promega's Cell Titer Aqueous One Solution). Virion-associated HBV DNA present in the tissue culture supernatant is amplified employing PCR technology using primer pairs derived from the HBV strain ayw. Subsequently, the PCR-amplified HBV DNA is detected in real-time by monitoring increases in fluorescence signals that result from exonucleolytic degradation of a quenched fluorescent probe molecule following hybridization of the probe to the amplified HBV DNA (TaqMan; Perkin-Elmer).
Background: Quantitative PCR measures a nucleic acid by following its amplification.

Series [2] addresses T1, deoxyhypusine synthase (DHS) (Homo sapiens, UniProt P49366).
T1 construct: made in house; host or cells: E. coli BL21 (DE3), pGex vector
T1 sequence (P49366 1-369): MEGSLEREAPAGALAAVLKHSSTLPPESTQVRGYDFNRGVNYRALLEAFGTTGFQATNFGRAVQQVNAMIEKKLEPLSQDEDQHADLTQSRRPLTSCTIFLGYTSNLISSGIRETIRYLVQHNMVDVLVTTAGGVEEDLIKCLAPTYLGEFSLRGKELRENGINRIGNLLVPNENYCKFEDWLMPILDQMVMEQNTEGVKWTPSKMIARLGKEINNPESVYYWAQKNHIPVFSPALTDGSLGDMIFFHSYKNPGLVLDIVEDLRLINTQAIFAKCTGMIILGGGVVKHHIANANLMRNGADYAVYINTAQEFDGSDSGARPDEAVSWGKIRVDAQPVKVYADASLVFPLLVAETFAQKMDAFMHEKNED
Kind of series: In vitro DHS screening assay (hypusine formation on eIF-5A). Format: biochemical.

For a further series, the system named is PI-resistant HIV-1. Kind of series: Inhibition of multiple anti-retroviral drug resistant HIV-1 strains: PI-resistant. Format: cell-based. As to the method:
as §1

The subject of another series is HepG2 cells. Format: cell-based, human. The following applies: Lamivudine-resistant HBV experiment, read-out: TC50 (the source's name). As to the method:
as §2
The same type of experiments was additionally performed with a mutant, Lamivudine-resistant HBV strain, which was transfected into HepG2 cells.

In a further series the test system is BCBL-1 cells. Kind of series: Compound toxicity in BCBL-1 cells (Cell Titer Aqueous One). Format: cell-based, human. Particulars: read-out: TC50 (the source's name). As to the method:
The human BCBL-1 cell line is available through the AIDS Reference and Reagent Program (Cat.No. 3233). This cell line was derived from a body cavity-based lymphoma latently infected with HHV-8. Culturing these cells in the presence of phorbol ester induces a lytic infection cycle, resulting in the release of viral particles into the medium. Compound efficacy in this proposed assay is determined using TaqMan PCR technology, and compound toxicity is measured by addition of Promega's Cell Titer Aqueous One Solution (metabolic dye).
12. Duplicate plates will be set up plating media in place of TPA for evaluation of compound toxicity.
12. Twenty microliters of Cell Titer Aqueous One Solution (Promega) will be added to each well of the toxicity plates. Plates will be incubated at 37° C. in a humidified CO2 incubator for 4 hours or until sufficient color development has occurred. Plates will be read on a VMax microtiter plate reader at a wavelength of 490/650 nm. Toxicity of the test compound will be determined by comparing the optical density of test wells with that of control wells.

In the case of `CC(=NNC(=N)N)c1cc(NC(=O)CCCCCCCCC(=O)Nc2cc(C(C)=NNC(=N)N)cc(C(C)=NNC(=N)N)c2)cc(C(C)=NNC(=N)N)c1` [Compound 4, N,N′-bis (3,5-diacetylphenyl) decane diamide tetrakis (amidinohydrazone)], the “[%] inhibition of virus replication” value was 68% in series [1] (NRTI + PI-resistant HIV-1, 0.5 μM); 73% in series [1] (NRTI + PI-resistant HIV-1, 1.0 μM); 50% in the series on PI-resistant HIV-1 (PI-resistant HIV-1, 0.5 μM); 95% with PI-resistant HIV-1 (PI-resistant HIV-1, 1.0 μM). Moreover, the CC50 in the series with Vero cells was 20.6 µM; with HepG2 cells, 24.7 µM; in the series with BCBL-1 cells, 78.9 µM. For the same molecule, the Comments entry in the series on HBV (HBV, HepG2 2.2.15 cells) is “Active”. Further, the IC50 in the series with HBV (six days, read-out: IC50 (μM) Virion-DNA) was found to be 3.19 µM; with HBV (read-out: IC50 (μM) Intracellular Viral DNA), 4.96 µM. Moreover, in series [2], the “inhibition of the hypusine formation on the elF-5A protein” value is on record as “potent inhibitors”.
